Experimental findings from PMC9404985, “Development of Dicationic Bisguanidine-Arylfuran Derivatives as Potent Agents against Gram-Negative Bacteria” (Antibiotics, 2022) are described below.

Data set [1] relates to P. caledonica (NBRC/ATCC #102488). The data set can be described thus: Antibacterial resazurin assay, laboratory strain. As to conditions: for EC50 / EC90: Paraburkholderia caledonica, ATCC102488, 18 h; for EC50: read-out: Pcal EC50; for EC90: read-out: Pcal EC90; for Selectivity index P. caledonica: mean of MCF-7 and HepG2 EC50 over bacterial EC50, laboratory strain. In general terms: The colour change of resazurin is a common sign of viable cells or microbes.

The subject of data set [2] is E. coli (CCUG #67180). Put plainly: Antibacterial activity against isolates (Omnilog, Biolog redox dye). As to conditions: for EC90 / EC50: Escherichia coli, ca-MH broth, 24 h, 37 °C; for EC90: CCUG67180, 24 h; for EC50: CCUG67180; for Selectivity index E. coli (CCUG #67180): SI = ((EC50 MCF-7 + EC50 HepG2)/2)/EC50 bacterial strain. The data set is classed as cell-based, Escherichia coli. On the procedure:
(§1) The antibacterial activities of eight compounds (1, 3, 4, 6, 8, 10, 16, and 17) were tested against 10 different isolates of Gram-negative bacteria from human and other sources, two E. coli (CCUG #67180 and CCUG #17620/ATCC #25922, control strain), two K. pneumoniae (CCUG #58547 and CCUG #225T), two P. aeruginosa (CCUG #17619 and CCUG #59347), two A. baumannii (CCUG #57035 and CCUG #57250), E. cloacae (CCUG #6323T), and E. hormaechei (CCUG #58962) in a 96-well plate format. The compounds to test were 3-fold diluted in six steps in cation-adjusted Mueller-Hinton (ca-MH) broth to final concentrations spanning from 30 to 0.12 µM, i.e., a 1667–416,667 times dilution from the 50 mM stocks. Bacterial mass from the ten isolates grown overnight on horse blood or Mueller–Hinton agar plates was suspended in ca-MH and adjusted to a final inoculum cell density of ~5 × 10^5 CFU/mL. For all assays, Biolog redox dye A diluted 100× from the stock solution was used for measurements of all ten isolates (up to a total volume of 120 µL per well). All plates included one well per isolate with only inoculum and dye but no test compound (i.e., positive control) and one well per isolate with inoculum, dye and DMSO diluted 1667×, corresponding to the DMSO concentration in the wells with the highest concentration of test compound. All measurements were performed using the Omnilog microplate reader (Biolog, Hayward, CA, USA) where the 96-well plates were read at 15 min intervals for a total of 24 h at 37 °C.

Data set [3] relates to E. coli (CCUG #17620/ ATCC #25922). The data set is described as above. The data set is classed as cell-based, Escherichia coli. As to conditions: for EC50 / EC90: Escherichia coli, ca-MH broth, 24 h, 37 °C; for Selectivity index E. coli (CCUG #17620/ ATCC #25922): SI = ((EC50 MCF-7 + EC50 HepG2)/2)/EC50 bacterial strain. The protocol: as §1
The subject of data set [4] is B. subtilis (NBRC/ATCC #111470). The data set can be described thus: Antibacterial resazurin assay, laboratory strain. To be noted: for EC50 / EC90: Bacillus subtilis, ATCC111470, 18 h; for EC50: read-out: Bsu EC50; for EC90: read-out: Bsu EC90.
For data set [5], the system named is P. putida (NBRC/ATCC #100650). Put plainly: Antibacterial resazurin assay, laboratory strain. As to conditions: for EC50 / EC90: Pseudomonas putida, ATCC100650, 18 h; for EC50: read-out: Ppu EC50, laboratory strain, 18 h, 37 °C, AlamarBlue; for EC90: read-out: Ppu EC90; for Selectivity index P. putida: mean of MCF-7 and HepG2 EC50 over bacterial EC50, laboratory strain.

Data set [6] in a line: Cytotoxicity assay (PrestoBlue) MCF-7. As to conditions: human, MCF-7 cells (breast cancer cell line), 24 h incubation. The data set is classed as cell-based.
The subject of data set [7] is A. baumannii (CCUG #57250). The data set can be described thus: Antibacterial activity against isolates (Omnilog, Biolog redox dye). The data set is classed as cell-based, Acinetobacter baumannii. As to conditions: for EC90 / EC50: Acinetobacter baumannii, ca-MH broth, 24 h, 37 °C; for EC90: CCUG57250, 24 h; for EC50: CCUG57250; for Selectivity index A. baumannii (CCUG #57250): SI = ((EC50 MCF-7 + EC50 HepG2)/2)/EC50 bacterial strain. The protocol:
as §1

Data set [8] deals with P. aeruginosa (CCUG #59347). The data set is described as above. The data set is classed as cell-based, Pseudomonas aeruginosa. As to conditions: for EC50 / EC90: Pseudomonas aeruginosa, CCUG59347, ca-MH broth, 24 h, 37 °C; for Selectivity index P. aeruginosa (CCUG #59347): SI = ((EC50 MCF-7 + EC50 HepG2)/2)/EC50 bacterial strain. The protocol: as §1, with “The compounds to test were 3-fold diluted in six steps in cation-adjusted Mueller-Hinton (ca-MH) broth to final concentrations spanning from 30 to 0.12 µM, i.e., a 1667–416,667 times dilution from the 50 mM stocks.” left out

The subject of data set [9] is E. hormaechei (CCUG #58962). The description is as above. The data set is classed as cell-based, Enterobacter hormaechei. As to conditions: for EC50 / EC90: Enterobacter hormaechei, CCUG58962, ca-MH broth, 24 h, 37 °C; for Selectivity index E. hormaechei (CCUG #58962): SI = ((EC50 MCF-7 + EC50 HepG2)/2)/EC50 bacterial strain. The protocol:
as §1, with “The compounds to test were 3-fold diluted in six steps in cation-adjusted Mueller-Hinton (ca-MH) broth to final concentrations spanning from 30 to 0.12 µM, i.e., a 1667–416,667 times dilution from the 50 mM stocks.” left out

On to `COC(=O)c1cc(NC(=N)N)ccc1-c1ccc(-c2ccc(NC(=N)N)cc2C(=O)OC)o1` [Compound 8, 2,5-Bis(4-guanidino-2-(methylcarboxy)phenyl)furan], for which the EC50 (as a rule, the concentration that produces a half-maximal response) in [1] was more than 300 µM; in data set [2], 53.4 µM; in data set [3] it was 6 µM; in data set [4], 22.5 µM; in data set [5] it was 68.4 µM; in data set [7] it was 4.4 µM. In addition, the 50% effective concentration (EC50) in data set [8] is more than 200 µM; in data set [9], 8.3 µM. The 90% effect concentration (EC90) (commonly the concentration needed for an effect of 90%) in data set [1] is more than 300 µM; in data set [2], 67.5 µM; in [3], 8.2 µM; in data set [4] it was 43.6 µM; in data set [5], 92.1 µM; in data set [7] it was 5.1 µM. Moreover, the 90% effect concentration (EC90) in data set [8] is more than 200 µM; in [9], 8.7 µM. Also, the “Selectivity index E. coli (CCUG #67180)” value in data set [2] turned out to be 4.6. Also, the “Selectivity index E. coli (CCUG #17620/ ATCC #25922)” value in data set [3] came out at 40.5. Besides, in data set [4] (mean of MCF-7 and HepG2 EC50 over bacterial EC50, laboratory strain), the “Selectivity index B. subtilis” value is given as 10.8. In data set [5], the “Selectivity index P. putida” value turned out to be 3.6. In addition, the EC50 at 24 h in [6] came to 81.6 µM. Further, the “Selectivity index A. baumannii (CCUG #57250)” value (“Selectivity index A. baumannii” below) in data set [7] stood at 55.3. Moreover, the “Selectivity index E. hormaechei (CCUG #58962)” value in [9] came out at 29.4.

`N=C(N)NCc1ccc(-c2ccc(-c3ccc(CNC(=N)N)cc3)o2)cc1` [Compound 10, 2,5-Bis(4-guanidinomethylphenyl)furan]: the EC50 in data set [1] was 2.9 µM; in data set [2] it was 188 µM; in data set [3], 151 µM; in data set [4], more than 300 µM; in data set [5] it was 25.6 µM; in data set [7], more than 200 µM. The EC50 in data set [8] and in data set [9] was more than 200 µM each time. For the same compound, the EC90 was 5 µM in [1]; more than 200 µM in data set [2]; 179 µM in data set [3]; more than 300 µM in [4]; 36.7 µM in [5]; more than 200 µM in data set [7]. Moreover, the EC90 in [8] and in data set [9] was more than 200 µM throughout. Moreover, in data set [1], the “Selectivity index P. caledonica” value came out at 31.8. In addition, the “Selectivity index E. coli (CCUG #67180)” value in data set [2] is reported as 0.5. The “Selectivity index E. coli (CCUG #17620/ ATCC #25922)” value in data set [3] came out at 0.6. Besides, the “Selectivity index P. putida” value in data set [5] was found to be 3.6. For the same compound, the EC50 at 24 h in [6] is 48.6 µM.

Turning to `N=C(N)Nc1ccc(-c2ccc(C(=O)N3CCc4cc(NC(=N)N)ccc43)o2)c(Cl)c1` [Compound 16, (5-(2-chloro-4-guanidinophenyl)furan-2-yl)(5-guanidinoindolin-1-yl)methanone], in [1], the half-maximal effective concentration (EC50) came out at 51.4 µM, the EC90 came to 176 µM and the “Selectivity index P. caledonica” value worked out at 4.1. In addition, in data set [2], the EC90 was found to be 27.1 µM, a half-maximal response (EC50) required 23 µM and the “Selectivity index E. coli (CCUG #67180)” value came out at 9.1. Besides, in [3], the concentration for a half-maximal effect (EC50) was found to be 13.6 µM, the 90% effect level (EC90) was put at 19.7 µM and the “Selectivity index E. coli (CCUG #17620/ ATCC #25922)” value is reported as 15.4. In data set [4], the EC50 is more than 300 µM and the EC90 was more than 300 µM. In [5], the EC50 turned out to be 94.2 µM, the EC90 stood at 147 µM and the “Selectivity index P. putida” value worked out at 2.2. This compound yielded a 50% effective concentration (EC50) at 24 h in data set [6] of 177 µM. In addition, in data set [7], it took 12.5 µM to reach the 90% level (EC90), the response was half-maximal at 12.5 µM (EC50) and the “Selectivity index A. baumannii” value amounted to 16.7. Besides, in [8], the half-maximal effective concentration (EC50) came out at 18.1 µM, the 90% effect concentration (EC90) was found to be 24 µM and the “Selectivity index P. aeruginosa (CCUG #59347)” value stood at 11.5. Also, in [9], it took 12.7 µM to reach a half-maximal effect (EC50), the 90% effect level (EC90) was put at 14.7 µM and the “Selectivity index E. hormaechei (CCUG #58962)” value turned out to be 16.4.

`N=C(N)Nc1ccc(-c2ccc(C(=O)N3CCc4cc(NC(=N)N)ccc43)o2)cc1` [Compound 17, (5-(4-guanidinophenyl)furan-2-yl)(5-guanidinoindolin-1-yl)methanone]: in data set [1], the concentration for a half-maximal effect (EC50) is 72.5 µM, the EC90 is more than 300 µM and the “Selectivity index P. caledonica” value came to 2.7. Besides, in data set [2], the EC90 is 19.9 µM, the EC50 was 14.2 µM and the “Selectivity index E. coli (CCUG #67180)” value is on record as 13.7. Moreover, in [3], it took 16.4 µM to reach a half-maximal effect (EC50), it took 24 µM to reach the 90% level (EC90) and the “Selectivity index E. coli (CCUG #17620/ ATCC #25922)” value was 11.8. Moreover, in data set [4], the EC50 is more than 300 µM and the EC90 was more than 300 µM. Further, in data set [5], the 50% effective concentration (EC50) amounted to 73.9 µM, the EC90 was determined as 98 µM and the “Selectivity index P. putida” value is recorded as 2.6. In [6], this compound showed a 50% effective concentration (EC50) at 24 h of 149 µM. In [7], the 90% effect concentration (EC90) was 90.3 µM, the EC50 is 61.8 µM and the “Selectivity index A. baumannii” value worked out at 3.1. Moreover, in data set [8], it took 17 µM to reach a half-maximal effect (EC50), it took 23.9 µM to reach the 90% level (EC90) and the “Selectivity index P. aeruginosa (CCUG #59347)” value is given as 11.4. In data set [9], this compound displayed a 50% effective concentration (EC50) of more than 200 µM and an EC90 of more than 200 µM.
